± gives the expanded uncertainty stated by the source.

For series [1] the following is noted: Liquid; for speed of sound: 100 kPa, Frequency=3 MHz, Sing-around technique in a fixed-path interferometer; for mass density: 101.33 kPa, Vibrating tube method.
Series [2] can be described thus: molar heat capacity at constant pressure. The settings on record: 101.33 kPa, Liquid, Extra sensitive DSC.

Consider `O=C1CCCCC1` [cyclohexanone], for which the speed of sound (commonly the propagation velocity of pressure waves in the medium) worked out at 1431.2 ± 1.3 m/s in series [1] (293.15 K), 1415.5 ± 1.3 m/s in series [1] (298.15 K), 1395.1 ± 1.3 m/s in series [1] (303.15 K) and 1375.1 ± 1.3 m/s in series [1] (308.15 K). Also, the mass density (as a rule, the mass of a sample divided by its volume) in series [1] (293.15 K) came out at 947.38 ± 1 kg/m3; in series [1] (298.15 K), 942.92 ± 1 kg/m3; in series [1] (303.15 K), 938.07 ± 1 kg/m3; in series [1] (308.15 K), 933.19 ± 1 kg/m3. Besides, the “molar heat capacity at constant pressure” value in series [2] (293.15 K) was 176.17 ± 6.8 J/K/mol; in series [2] (298.15 K) it was 178.27 ± 6.9 J/K/mol; in series [2] (303.15 K), 180.38 ± 7 J/K/mol; in series [2] (308.15 K), 182.46 ± 7.1 J/K/mol.

As to `O=C1CCCCCC1` [cycloheptanone], the speed of sound in series [1] (293.15 K) stood at 1477.3 ± 1.6 m/s; in series [1] (298.15 K), 1455 ± 1.6 m/s; in series [1] (303.15 K), 1432.4 ± 1.6 m/s; in series [1] (308.15 K) it was 1409.6 ± 1.6 m/s. For the same molecule, the mass density came to 951.85 ± 1 kg/m3 in series [1] (293.15 K), 947.62 ± 1 kg/m3 in series [1] (298.15 K), 943.38 ± 1 kg/m3 in series [1] (303.15 K) and 939.14 ± 1 kg/m3 in series [1] (308.15 K). Besides, the “molar heat capacity at constant pressure” value is 201.11 ± 7.8 J/K/mol in series [2] (293.15 K), 202.01 ± 7.8 J/K/mol in series [2] (298.15 K), 203.21 ± 7.9 J/K/mol in series [2] (303.15 K) and 204.51 ± 7.9 J/K/mol in series [2] (308.15 K).

`C1COCCO1` [1,4-dioxane]: the speed of sound in series [1] (293.15 K) is 1367.8 ± 1.5 m/s; in series [1] (298.15 K), 1346 ± 1.5 m/s; in series [1] (303.15 K), 1324.4 ± 1.5 m/s; in series [1] (308.15 K), 1302.5 ± 1.5 m/s. The mass density in series [1] (293.15 K) is recorded as 1033.59 ± 1 kg/m3; in series [1] (298.15 K), 1027.94 ± 1 kg/m3; in series [1] (303.15 K), 1022.28 ± 1 kg/m3; in series [1] (308.15 K), 1016.59 ± 1 kg/m3. Further, the “molar heat capacity at constant pressure” value in series [2] (293.15 K) is listed as 151.62 ± 5.9 J/K/mol; in series [2] (298.15 K) it was 152.76 ± 5.9 J/K/mol; in series [2] (303.15 K) it was 153.92 ± 6 J/K/mol; in series [2] (308.15 K), 155.09 ± 6 J/K/mol.

Take `C1CCOCC1` [tetrahydropyran]: the speed of sound is on record as 1293 ± 1.4 m/s in series [1] (293.15 K), 1269.7 ± 1.4 m/s in series [1] (298.15 K), 1246.7 ± 1.4 m/s in series [1] (303.15 K) and 1224.3 ± 1.4 m/s in series [1] (308.15 K). The mass density in series [1] (293.15 K) came to 884.23 ± 1 kg/m3; in series [1] (298.15 K) it was 879.09 ± 1 kg/m3; in series [1] (303.15 K), 873.91 ± 1 kg/m3; in series [1] (308.15 K), 868.75 ± 1 kg/m3. For the same molecule, the “molar heat capacity at constant pressure” value in series [2] (293.15 K) was determined as 148.03 ± 5.7 J/K/mol; in series [2] (298.15 K), 149.68 ± 5.8 J/K/mol; in series [2] (303.15 K) it was 151.18 ± 5.9 J/K/mol; in series [2] (308.15 K) it was 153.01 ± 5.9 J/K/mol.

The values are drawn from the NIST ThermoML archive (doi:10.1021/acs.jced.6b00606).
